Values joined by “and” are separate entries in the source; they are usually repeats but may differ in a detail not shown here. Equal entries are not always repeated.
Columns and labels:
Assay type in all cases: in vivo, rat
[1] = test system: pregnancy in rats; test: Pregnancy termination in rats, compounds administered intragastrically for four days (Table 1); details: for Serum Progesterone (Percent Control) / Serum Progesterone ng/ml + S.E.: serum day 11, 24 hours after initial injection; for Adrenal Wt. mg + SE / Fetal Viability: Normal Fetuses/Implantation Sites / Fetal Viability: Normal Fetuses/Implantation Sites (Percent) / Number of Rats Pregnant/Number of Rats Treated / Number of Rats Pregnant/Number of Rats Treated (Percent): autopsy day 14
Experimental: (§1) The following tables list the results for a compound of Formula IV as compared with a control of previously known 2α-cyano-17β-hydroxy-3-oxo-4,4,17α-trimethylandrost-5-end(Cyanoketone) for termination of pregnancy.
(§2) ^1 Compounds were administered intragastrically once daily on days 10
through 13 of pregnancy in a vehicle consisting of PEG400, propylene
glycol and 100 percent ethanol (50:40:10, v:v:v). Serum for progesterone
determination was drawn on day 11 of pregnancy, 24 hours after the initia
injection of compound. The animals were autopsied on day 14 of pregnancy.

[2] = test system: pregnancy in rats; test: Termination of pregnancy in rats, compounds administered subcutaneously (Table 2); details: for Serum Progesterone (Percent Control) / Serum Progesterone ng/ml + S.E.: serum day 11, 24 hours after initial injection
Experimental: as §1
^1 Compounds given subcutaneously in corn oil vehicle once daily on
days 10 through 13 of pregnancy. Serum for progesterone determination was
drawn on day 11 of pregnancy, 24 hours after the initial injection of
(§3) compound. The animals were autopsied on day 14 of pregnancy.
^2 Serum progesterone values determined by RIA at Interlab Associates

[3] = test system: pregnancy in rats; test: Pregnancy termination in rats, compounds administered intragastrically on day 10 of pregnancy (Table 3); details: for Serum Progesterone (Percent Control) / Serum Progesterone ng/ml + S.E.: serum day 11, 24 hours after injection; for Adrenal Wt. mg + SE / Fetal Viability: Normal Fetuses/Implantation Sites / Fetal Viability: Normal Fetuses/Implantation Sites (Percent) / Number of Rats Pregnant/Number of Rats Treated / Number of Rats Pregnant/Number of Rats Treated (Percent): autopsy day 14
Experimental: as §1, §2
of pregnancy in a vehicle consisting of PEG400, propylene glycol and 100
percent ethanol (50:40:10, v:v:v). Serum for progesterone determination
was drawn on day 11 of pregnancy, 24 hours after the initial injection of
as §3

[4] = 2 mg/kg/day intragastrically days 10-13 of pregnancy
[5] = 2 mg/kg/day intragastrically once daily days 10-13 of pregnancy
[6] = 4 mg/kg/day intragastrically days 10-13 of pregnancy
[7] = 4 mg/kg/day intragastrically once daily days 10-13 of pregnancy
[8] = 8 mg/kg/day intragastrically days 10-13 of pregnancy
[9] = 8 mg/kg/day intragastrically once daily days 10-13 of pregnancy
[10] = 16 mg/kg/day intragastrically days 10-13 of pregnancy
[11] = 16 mg/kg/day intragastrically once daily days 10-13 of pregnancy
[12] = 2 mg/kg/day subcutaneously days 10-13 of pregnancy
[13] = 2 mg/kg/day subcutaneously in corn oil once daily days 10-13 of pregnancy, autopsy day 14
[14] = 4 mg/kg/day subcutaneously days 10-13 of pregnancy
[15] = 4 mg/kg/day subcutaneously in corn oil once daily days 10-13 of pregnancy, autopsy day 14
[16] = 8 mg/kg/day subcutaneously days 10-13 of pregnancy
[17] = 8 mg/kg/day subcutaneously in corn oil once daily days 10-13 of pregnancy, autopsy day 14
[18] = 16 mg/kg/day subcutaneously days 10-13 of pregnancy, 16 mg/kg/day
[19] = 16 mg/kg/day subcutaneously in corn oil once daily days 10-13 of pregnancy, autopsy day 14
[20] = 16 mg/kg/day subcutaneously in corn oil once daily days 10-13 of pregnancy, autopsy day 14, 16 mg/kg/day
[21] = 4 mg/kg intragastrically on day 10 of pregnancy
[22] = 4 mg/kg intragastrically once on day 10 of pregnancy
[23] = 8 mg/kg intragastrically on day 10 of pregnancy
[24] = 8 mg/kg intragastrically once on day 10 of pregnancy
[25] = 16 mg/kg intragastrically on day 10 of pregnancy
[26] = 16 mg/kg intragastrically once on day 10 of pregnancy

Q: Which “Serum Progesterone (Percent Control)” value [1, 4] does the source give for CC(=O)OC1=C(C#N)C[C@@]2(C)C(=CC[C@@H]3[C@@H]2CC[C@@]2(C)[C@H]3CC[C@]2(C)O)C1(C)C [3-(acetyloxy)-17β-hydroxy-4,4,17α-trimethylandrosta-2,5-diene-2-carbonitrile] here?
A: 109 Percent Control

Q: And the “Serum Progesterone ng/ml + S.E.” value [1, 4]?
A: 49.6 + 6.2 ng/ml

Q: And the “Adrenal Wt. mg + SE” value [1, 5]?
A: 68.9 + 2.2 mg

Q: And the “Fetal Viability: Normal Fetuses/Implantation Sites” value [1, 5]?
A: 60/89

Q: What about the “Fetal Viability: Normal Fetuses/Implantation Sites (Percent)” value [1, 5] of the same compound?
A: 67%

Q: What about the “Number of Rats Pregnant/Number of Rats Treated” value [1, 5] of the same compound?
A: 7/9

Q: What about the “Number of Rats Pregnant/Number of Rats Treated (Percent)” value [1, 5] of the same compound?
A: 78%

Q: What about the “Serum Progesterone (Percent Control)” value [1, 6] of the same compound?
A: 29 Percent Control

Q: What about the “Serum Progesterone ng/ml + S.E.” value [1, 6] of the same compound?
A: 13.4 + 3.9 ng/ml

Q: And the “Adrenal Wt. mg + SE” value [1, 7]?
A: 68.6 + 2.3 mg

Q: And the “Fetal Viability: Normal Fetuses/Implantation Sites” value [1, 7]?
A: 0/112

Q: What about the “Fetal Viability: Normal Fetuses/Implantation Sites (Percent)” value [1, 7] of the same compound?
A: 0%

Q: And the “Number of Rats Pregnant/Number of Rats Treated” value [1, 7]?
A: 0/10

Q: What about the “Number of Rats Pregnant/Number of Rats Treated (Percent)” value [1, 7] of the same compound?
A: 0%

Q: What about the “Serum Progesterone (Percent Control)” value [1, 8] of the same compound?
A: 40 Percent Control

Q: What about the “Serum Progesterone ng/ml + S.E.” value [1, 8] of the same compound?
A: 18.1 + 2.5 ng/ml

Q: And the “Adrenal Wt. mg + SE” value [1, 9]?
A: 70.3 + 3.1 mg

Q: What about the “Fetal Viability: Normal Fetuses/Implantation Sites” value [1, 9] of the same compound?
A: 0/95

Q: What about the “Fetal Viability: Normal Fetuses/Implantation Sites (Percent)” value [1, 9] of the same compound?
A: 0%

Q: And the “Number of Rats Pregnant/Number of Rats Treated” value [1, 9]?
A: 0/10

Q: And the “Number of Rats Pregnant/Number of Rats Treated (Percent)” value [1, 9]?
A: 0%

Q: And the “Serum Progesterone (Percent Control)” value [1, 10]?
A: 29 Percent Control

Q: And the “Serum Progesterone ng/ml + S.E.” value [1, 10]?
A: 13.4 + 2.0 ng/ml

Q: And the “Adrenal Wt. mg + SE” value [1, 11]?
A: 72.1 + 2.1 mg

Q: And the “Fetal Viability: Normal Fetuses/Implantation Sites” value [1, 11]?
A: 0/111

Q: What about the “Fetal Viability: Normal Fetuses/Implantation Sites (Percent)” value [1, 11] of the same compound?
A: 0%

Q: What about the “Number of Rats Pregnant/Number of Rats Treated” value [1, 11] of the same compound?
A: 0/10

Q: What about the “Number of Rats Pregnant/Number of Rats Treated (Percent)” value [1, 11] of the same compound?
A: 0%

Q: And the “Serum Progesterone (Percent Control)” value [2, 12]?
A: 91 Percent Control

Q: And the “Serum Progesterone ng/ml + S.E.” value [2, 12]?
A: 52.3 + 2.8 ng/ml

Q: And the “Adrenal Wt. mg + SE” value [2, 13]?
A: 81.2 + 3.2 mg

Q: And the “Fetal Viability: Normal Fetuses/Implantation Sites” value [2, 13]?
A: 101/109

Q: What about the “Fetal Viability: Normal Fetuses/Implantation Sites (Percent)” value [2, 13] of the same compound?
A: 93%

Q: What about the “Number of Rats Pregnant/Number of Rats Treated” value [2, 13] of the same compound?
A: 9/9

Q: What about the “Number of Rats Pregnant/Number of Rats Treated (Percent)” value [2, 13] of the same compound?
A: 100%

Q: What about the “Serum Progesterone (Percent Control)” value [2, 14] of the same compound?
A: 32 Percent Control

Q: What about the “Serum Progesterone ng/ml + S.E.” value [2, 14] of the same compound?
A: 14.2 + 4.9 ng/ml

Q: And the “Adrenal Wt. mg + SE” value [2, 15]?
A: 72.9 + 3.8 mg

Q: And the “Fetal Viability: Normal Fetuses/Implantation Sites” value [2, 15]?
A: 21/72

Q: What about the “Fetal Viability: Normal Fetuses/Implantation Sites (Percent)” value [2, 15] of the same compound?
A: 29%

Q: What about the “Number of Rats Pregnant/Number of Rats Treated” value [2, 15] of the same compound?
A: 2/7

Q: And the “Number of Rats Pregnant/Number of Rats Treated (Percent)” value [2, 15]?
A: 29%

Q: And the “Serum Progesterone (Percent Control)” value [2, 16]?
A: 29 Percent Control

Q: What about the “Serum Progesterone ng/ml + S.E.” value [2, 16] of the same compound?
A: 12.7 + 1.4 ng/ml

Q: What about the “Adrenal Wt. mg + SE” value [2, 17] of the same compound?
A: 83.9 + 2.0 mg

Q: What about the “Fetal Viability: Normal Fetuses/Implantation Sites” value [2, 17] of the same compound?
A: 0/112

Q: And the “Fetal Viability: Normal Fetuses/Implantation Sites (Percent)” value [2, 17]?
A: 0%

Q: What about the “Number of Rats Pregnant/Number of Rats Treated” value [2, 17] of the same compound?
A: 0/9

Q: And the “Number of Rats Pregnant/Number of Rats Treated (Percent)” value [2, 17]?
A: 0%

Q: What about the “Serum Progesterone (Percent Control)” value [2, 18] of the same compound?
A: 26 Percent Control and 36 Percent Control

Q: And the “Serum Progesterone ng/ml + S.E.” value [2, 18]?
A: 13.1 + 1.4 ng/ml and 15.7 + 2.8 ng/ml

Q: And the “Fetal Viability: Normal Fetuses/Implantation Sites (Percent)” value [2, 19]?
A: 0%

Q: What about the “Number of Rats Pregnant/Number of Rats Treated” value [2, 19] of the same compound?
A: 0/8

Q: And the “Number of Rats Pregnant/Number of Rats Treated (Percent)” value [2, 19]?
A: 0%

Q: And the “Adrenal Wt. mg + SE” value [2, 20]?
A: 93.8 + 4.9 mg and 98.3 + 2.8 mg

Q: What about the “Fetal Viability: Normal Fetuses/Implantation Sites” value [2, 20] of the same compound?
A: 0/98 and 0/84

Q: What about the “Serum Progesterone (Percent Control)” value [3, 21] of the same compound?
A: 33 Percent Control

Q: And the “Serum Progesterone ng/ml + S.E.” value [3, 21]?
A: 19.0 + 7.4 ng/ml

Q: What about the “Adrenal Wt. mg + SE” value [3, 22] of the same compound?
A: 60.0 + 4.2 mg

Q: And the “Fetal Viability: Normal Fetuses/Implantation Sites” value [3, 22]?
A: 6/82

Q: And the “Fetal Viability: Normal Fetuses/Implantation Sites (Percent)” value [3, 22]?
A: 7%

Q: And the “Number of Rats Pregnant/Number of Rats Treated” value [3, 22]?
A: 1/8

Q: And the “Number of Rats Pregnant/Number of Rats Treated (Percent)” value [3, 22]?
A: 13%

Q: And the “Serum Progesterone (Percent Control)” value [3, 23]?
A: 18 Percent Control

Q: What about the “Serum Progesterone ng/ml + S.E.” value [3, 23] of the same compound?
A: 10.4 + 2.5 ng/ml

Q: And the “Adrenal Wt. mg + SE” value [3, 24]?
A: 62.0 + 2.5 mg

Q: What about the “Fetal Viability: Normal Fetuses/Implantation Sites” value [3, 24] of the same compound?
A: 0/81

Q: And the “Fetal Viability: Normal Fetuses/Implantation Sites (Percent)” value [3, 24]?
A: 0%

Q: What about the “Number of Rats Pregnant/Number of Rats Treated” value [3, 24] of the same compound?
A: 0/7

Q: And the “Number of Rats Pregnant/Number of Rats Treated (Percent)” value [3, 24]?
A: 0%

Q: What about the “Serum Progesterone (Percent Control)” value [3, 25] of the same compound?
A: 24 Percent Control

Q: What about the “Serum Progesterone ng/ml + S.E.” value [3, 25] of the same compound?
A: 13.8 + 1.7 ng/ml

Q: And the “Adrenal Wt. mg + SE” value [3, 26]?
A: 56.8 + 2.0 mg

Q: And the “Fetal Viability: Normal Fetuses/Implantation Sites” value [3, 26]?
A: 0/60

Q: What about the “Fetal Viability: Normal Fetuses/Implantation Sites (Percent)” value [3, 26] of the same compound?
A: 0%

Q: What about the “Number of Rats Pregnant/Number of Rats Treated” value [3, 26] of the same compound?
A: 0/6

Q: And the “Number of Rats Pregnant/Number of Rats Treated (Percent)” value [3, 26]?
A: 0%
